# Experimental data reported in ChEMBL document CHEMBL1201862, “PubChem BioAssay data set” (2004).
#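 These data come from cells grown in 96-well plates and exposed to compound for 48 hours at five concentrations. GI50 is the concentration that inhibits growth by half.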 Calls of active or inactive are those of the source. No stated cut-off is given here; in the data, active = GI50 up to about 1.1 µM and inactive = higher.
# Key:
# Test in all cases: inhibition of tumour cell growth, NCI panel, 48 h
# [1] = system: Malme-3M
# [2] = system: OVCAR-3
# [3] = system: SW-620
# [4] = system: UACC-62
# [5] = system: RXF 393
# [6] = system: BT-549
# [7] = system: CCRF-CEM
# [8] = system: LOX IMVI
# [9] = system: HCT-15
# [10] = system: NCI-H460
# [11] = system: SF-268
# [12] = system: DU-145
# [13] = system: HT-29
# [14] = system: MDA-MB-435
# [15] = system: OVCAR-5
# [16] = system: SNB-75
# [17] = system: Hs-578T
# [18] = system: 786-0
# [19] = system: UO-31
# [20] = system: HL-60
# [21] = system: HOP-62
# [22] = system: CAKI-1
# [23] = system: SF-295
# [24] = system: IGROV-1
# [25] = system: PC-3
# [26] = system: HOP-92
# [27] = system: NCI-H226
# [28] = system: SK-MEL-5
# [29] = system: HCT-116
# [30] = system: NCI-H23
# [31] = system: SN12C
# [32] = system: NCI-H522
# [33] = system: K562
# [34] = system: RPMI-8226
# [35] = system: SF-539
# [36] = system: COLO 205
# [37] = system: MOLT-4
# [38] = system: UACC-257
# [39] = system: SNB-19
# [40] = system: NCI/ADR-RES
# [41] = system: OVCAR-8
# [42] = system: EKVX
# [43] = system: T47D
# [44] = system: ACHN
# [45] = system: SK-MEL-28
# [46] = system: HCC 2998
# [47] = system: A549
# [48] = system: OVCAR-4
# [49] = system: TK-10
# [50] = system: M14
# [51] = system: U-251
# [52] = system: MDA-MB-231
# [53] = system: A498
# [54] = system: SR
# [55] = system: SK-OV-3
# [56] = system: MCF7
# [57] = system: SK-MEL-2
# [58] = system: KM12
smiles,measurement,setting,value
O=[N+]([O-])c1cc(Cl)cc2cc(Cl)cnc12,GI50,[1],> 100 µM (inactive)
same,GI50,[2],> 100 µM (inactive)
same,GI50,[3],> 100 µM (inactive)
same,GI50,[4],53.2 µM (inactive)
same,GI50,[5],> 100 µM (inactive)
same,GI50,[6],> 100 µM (inactive)
same,GI50,[7],> 100 µM (inactive)
same,GI50,[8],> 100 µM (inactive)
same,GI50,[9],> 100 µM
same,GI50,[10],> 100 µM (inactive)
same,GI50,[11],> 100 µM (inactive)
same,GI50,[12],> 100 µM (inactive)
same,GI50,[13],> 100 µM (inactive)
same,GI50,[14],> 100 µM (inactive)
same,GI50,[15],> 100 µM (inactive)
same,GI50,[16],15.6 µM (inactive)
same,GI50,[17],25.9 µM (inactive)
same,GI50,[18],> 100 µM (inactive)
same,GI50,[19],> 100 µM (inactive)
same,GI50,[20],62.4 µM (inactive)
same,GI50,[21],> 100 µM (inactive)
same,GI50,[22],> 100 µM (inactive)
same,GI50,[23],> 100 µM (inactive)
same,GI50,[24],7.35 µM (inactive)
same,GI50,[25],93.5 µM (inactive)
same,GI50,[26],> 100 µM (inactive)
same,GI50,[27],> 100 µM (inactive)
same,GI50,[28],62.5 µM (inactive)
same,GI50,[29],95.1 µM (inactive)
same,GI50,[30],> 100 µM (inactive)
same,GI50,[31],> 100 µM (inactive)
same,GI50,[32],> 100 µM (inactive)
same,GI50,[33],> 100 µM (inactive)
same,GI50,[34],> 100 µM (inactive)
same,GI50,[35],> 100 µM (inactive)
same,GI50,[36],> 100 µM (inactive)
same,GI50,[37],> 100 µM (inactive)
same,GI50,[38],61.4 µM (inactive)
same,GI50,[39],> 100 µM (inactive)
same,GI50,[40],> 100 µM (inactive)
same,GI50,[41],98.9 µM (inactive)
same,GI50,[42],83.2 µM (inactive)
same,GI50,[43],16.4 µM (inactive)
same,GI50,[44],> 100 µM (inactive)
same,GI50,[45],> 100 µM (inactive)
same,GI50,[46],> 100 µM (inactive)
same,GI50,[47],> 100 µM (inactive)
same,GI50,[48],35.7 µM (inactive)
same,GI50,[49],> 100 µM (inactive)
same,GI50,[50],> 100 µM (inactive)
same,GI50,[51],> 100 µM (inactive)
same,GI50,[52],60.1 µM (inactive)
same,GI50,[53],48 µM (inactive)
same,GI50,[54],63.8 µM (inactive)
CCCC[N+](CCCC)(CCCC)CCCC.O=S(=O)([O-])ON=C1c2ccccc2-c2ccccc21,GI50,[2],> 100 µM (inactive)
same,GI50,[3],> 100 µM (inactive)
same,GI50,[4],> 100 µM (inactive)
same,GI50,[5],> 100 µM (inactive)
same,GI50,[6],> 100 µM (inactive)
same,GI50,[55],> 100 µM (inactive)
same,GI50,[7],> 100 µM (inactive)
same,GI50,[8],> 100 µM (inactive)
same,GI50,[9],10 µM
same,GI50,[10],> 100 µM (inactive)
same,GI50,[11],> 100 µM (inactive)
same,GI50,[12],> 100 µM (inactive)
same,GI50,[13],> 100 µM (inactive)
same,GI50,[14],> 100 µM (inactive)
same,GI50,[56],> 100 µM (inactive)
same,GI50,[15],> 100 µM (inactive)
same,GI50,[16],> 100 µM (inactive)
same,GI50,[17],> 100 µM (inactive)
same,GI50,[18],> 100 µM (inactive)
same,GI50,[19],> 100 µM (inactive)
same,GI50,[57],> 100 µM (inactive)
same,GI50,[20],36 µM (inactive)
same,GI50,[21],> 100 µM (inactive)
same,GI50,[58],> 100 µM (inactive)
same,GI50,[22],> 100 µM (inactive)
same,GI50,[23],> 100 µM (inactive)
same,GI50,[24],> 100 µM (inactive)
same,GI50,[25],> 100 µM (inactive)
same,GI50,[26],> 100 µM (inactive)
same,GI50,[27],> 100 µM (inactive)
same,GI50,[28],61.5 µM (inactive)
same,GI50,[29],> 100 µM (inactive)
same,GI50,[30],> 100 µM (inactive)
same,GI50,[31],> 100 µM (inactive)
same,GI50,[32],47.2 µM (inactive)
same,GI50,[33],> 100 µM (inactive)
same,GI50,[34],50.8 µM (inactive)
same,GI50,[35],> 100 µM (inactive)
same,GI50,[36],> 100 µM (inactive)
same,GI50,[37],> 100 µM (inactive)
same,GI50,[38],> 100 µM (inactive)
same,GI50,[39],> 100 µM (inactive)
same,GI50,[40],> 100 µM (inactive)
same,GI50,[41],> 100 µM (inactive)
same,GI50,[42],> 100 µM (inactive)
same,GI50,[43],> 100 µM (inactive)
same,GI50,[44],> 100 µM (inactive)
same,GI50,[45],> 100 µM (inactive)
same,GI50,[46],> 100 µM (inactive)
same,GI50,[47],> 100 µM (inactive)
same,GI50,[48],> 100 µM (inactive)
same,GI50,[49],> 100 µM (inactive)
same,GI50,[50],> 100 µM (inactive)
same,GI50,[51],> 100 µM (inactive)
same,GI50,[52],> 100 µM (inactive)
same,GI50,[53],> 100 µM (inactive)
same,GI50,[54],> 100 µM (inactive)
O=C(NCCNCCCNC(=O)c1cc(-c2ccccc2)nc2ccccc12)c1cccc(O)c1O,GI50,[1],3.82 µM (inactive)
same,GI50,[2],2.38 µM (inactive)
same,GI50,[3],4.47 µM (inactive)
same,GI50,[4],2.27 µM (inactive)
same,GI50,[5],4.84 µM (inactive)
same,GI50,[6],2.56 µM (inactive)
same,GI50,[55],6.11 µM (inactive)
same,GI50,[7],0.697 µM (active)
same,GI50,[8],3.33 µM (inactive)
same,GI50,[9],5.36 µM
same,GI50,[10],2.36 µM (inactive)
same,GI50,[11],2.86 µM (inactive)
same,GI50,[12],3.61 µM (inactive)
same,GI50,[13],4.88 µM (inactive)
same,GI50,[14],2.51 µM (inactive)
same,GI50,[56],3.3 µM (inactive)
same,GI50,[15],2.28 µM (inactive)
same,GI50,[16],10.6 µM (inactive)
same,GI50,[17],13.8 µM (inactive)
same,GI50,[18],2.62 µM (inactive)
same,GI50,[19],3.3 µM (inactive)
same,GI50,[57],2.8 µM (inactive)
same,GI50,[20],3.21 µM (inactive)
same,GI50,[21],1.05 µM (active)
same,GI50,[58],4.44 µM (inactive)
same,GI50,[22],5.4 µM (inactive)
same,GI50,[23],1.84 µM (inactive)
same,GI50,[24],7.82 µM (inactive)
same,GI50,[25],5.94 µM (inactive)
same,GI50,[26],14.9 µM (inactive)
same,GI50,[27],18.5 µM (inactive)
same,GI50,[28],1.36 µM (inactive)
same,GI50,[29],1.47 µM (inactive)
same,GI50,[30],6.14 µM (inactive)
same,GI50,[31],1.95 µM (inactive)
same,GI50,[32],6.82 µM (inactive)
same,GI50,[33],2 µM (inactive)
same,GI50,[34],2.85 µM (inactive)
same,GI50,[35],2.48 µM (inactive)
same,GI50,[36],3.18 µM (inactive)
same,GI50,[37],0.916 µM (active)
same,GI50,[38],4.01 µM (inactive)
same,GI50,[39],2.1 µM (inactive)
same,GI50,[40],22.4 µM (inactive)
same,GI50,[41],2.38 µM (inactive)
same,GI50,[42],24.4 µM (inactive)
same,GI50,[43],3.3 µM (inactive)
same,GI50,[44],2.43 µM (inactive)
same,GI50,[45],1.72 µM (inactive)
same,GI50,[46],3.73 µM (inactive)
same,GI50,[47],4.72 µM (inactive)
same,GI50,[49],1.63 µM (inactive)
same,GI50,[50],1.46 µM (inactive)
same,GI50,[51],2.87 µM (inactive)
same,GI50,[52],4.23 µM (inactive)
same,GI50,[53],15.8 µM (inactive)
